Tests used:
Test in all cases: relative viability (nuclei count vs DMSO), 5 days (fraction); higher = more cells survive
[1] = compound: C1=CC2=C(C=C(C(=C2N=C1)O)N=NC3=CC4=C(C=C3)C=C(C=C4)S(=O)(=O)O)S(=O)(=O)O + CCNC(=O)c1noc(-c2cc(C(C)C)c(O)cc2O)c1-c1ccc(CN2CCOCC2)cc1 [Luminespib] (partner 0.01 µM)
Outline: (§1)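 One day after seeding in 1536-well plates, lung cancer cell lines were dosed by pin tool. Dosing was either single-drug or a fixed anchor-drug dose plus five library-drug doses (not always all listed) in √10 steps. After 5 days, nuclei were stained in one fix-and-stain step and counted on 4× images, and relative viability is the nuclei count of treated wells over that of vehicle wells, given as the median of duplicate plates.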

[2] = compound: C1=CC2=C(C=C(C(=C2N=C1)O)N=NC3=CC4=C(C=C3)C=C(C=C4)S(=O)(=O)O)S(=O)(=O)O + C[C@@H](Oc1cc(-c2cnn(C3CCNCC3)c2)cnc1N)c1c(Cl)ccc(F)c1Cl [Crizotinib] (partner 1 µM)
Outline: as §1

[3] = compound: C1=CC2=C(C=C(C(=C2N=C1)O)N=NC3=CC4=C(C=C3)C=C(C=C4)S(=O)(=O)O)S(=O)(=O)O + Nc1nc2[nH]cc(CCc3ccc(C(=O)N[C@@H](CCC(=O)O)C(=O)O)cc3)c2c(=O)[nH]1 [Pemetrexed] (partner 0.2 µM)
Outline: as §1

AT-7519 + OSI-027 = compound: O=C(NC1CCNCC1)c1n[nH]cc1NC(=O)c1c(Cl)cccc1Cl [AT-7519] + COc1cccc2cc(-c3nc([C@H]4CC[C@H](C(=O)O)CC4)n4ncnc(N)c34)[nH]c12 [OSI-027] (partner 0.5 µM)
Outline: as §1

NCI-H322M
relative viability ([1]; first compound 0.08 µM): 1.04
relative viability ([1]; first compound 0.253 µM): 0.828
relative viability ([1]; first compound 0.8 µM): 0.859
relative viability ([1]; first compound 2.53 µM): 0.847
relative viability ([1]; first compound 8 µM): 1.12
relative viability ([2]; first compound 0.08 µM): 1.12
relative viability ([2]; first compound 0.253 µM): 0.892
relative viability ([2]; first compound 0.8 µM): 0.904
relative viability ([2]; first compound 2.53 µM): 1.07
relative viability ([2]; first compound 8 µM): 1.02
relative viability ([3]; first compound 0.08 µM): 0.663
relative viability ([3]; first compound 0.253 µM): 0.663
relative viability ([3]; first compound 0.8 µM): 0.608
relative viability ([3]; first compound 2.53 µM): 0.587
relative viability ([3]; first compound 8 µM): 0.669
relative viability (AT-7519 + OSI-027; first compound 0.01 µM): 0.539
relative viability (AT-7519 + OSI-027; first compound 0.03162 µM): 0.521
relative viability (AT-7519 + OSI-027; first compound 0.3162 µM): 0.422
relative viability (AT-7519 + OSI-027; first compound 1 µM): 0.428

NCI-H358
relative viability ([1]; first compound 0.08 µM): 0.342
relative viability ([1]; first compound 0.253 µM): 0.382
relative viability ([1]; first compound 0.8 µM): 0.307
relative viability ([1]; first compound 2.53 µM): 0.309
relative viability ([1]; first compound 8 µM): 0.214
relative viability ([2]; first compound 0.08 µM): 0.582
relative viability ([2]; first compound 0.253 µM): 0.606
relative viability ([2]; first compound 0.8 µM): 0.616
relative viability ([2]; first compound 2.53 µM): 0.618
relative viability ([2]; first compound 8 µM): 0.351
relative viability ([3]; first compound 0.08 µM): 0.159
relative viability ([3]; first compound 0.253 µM): 0.16
relative viability ([3]; first compound 0.8 µM): 0.162
relative viability ([3]; first compound 2.53 µM): 0.163
relative viability ([3]; first compound 8 µM): 0.171
relative viability (AT-7519 + OSI-027; first compound 0.01 µM): 0.83
relative viability (AT-7519 + OSI-027; first compound 0.03162 µM): 0.676
relative viability (AT-7519 + OSI-027; first compound 0.3162 µM): 0.527
relative viability (AT-7519 + OSI-027; first compound 1 µM): 0.194

NCI-H441
relative viability ([1]; first compound 0.08 µM): 0.454
relative viability ([1]; first compound 0.253 µM): 0.323
relative viability ([1]; first compound 0.8 µM): 0.428
relative viability ([1]; first compound 2.53 µM): 0.363
relative viability ([1]; first compound 8 µM): 0.278
relative viability ([2]; first compound 0.08 µM): 0.762
relative viability ([2]; first compound 0.253 µM): 0.672
relative viability ([2]; first compound 0.8 µM): 0.631
relative viability ([2]; first compound 2.53 µM): 0.714
relative viability ([2]; first compound 8 µM): 0.601
relative viability ([3]; first compound 0.08 µM): 0.251
relative viability ([3]; first compound 0.253 µM): 0.27
relative viability ([3]; first compound 0.8 µM): 0.246
relative viability ([3]; first compound 2.53 µM): 0.26
relative viability ([3]; first compound 8 µM): 0.297
relative viability (AT-7519 + OSI-027; first compound 0.01 µM): 0.679
relative viability (AT-7519 + OSI-027; first compound 0.03162 µM): 0.603
relative viability (AT-7519 + OSI-027; first compound 0.3162 µM): 0.582
relative viability (AT-7519 + OSI-027; first compound 1 µM): 0.408

NCI-H460
relative viability ([1]; first compound 0.08 µM): 0.0298
relative viability ([1]; first compound 0.253 µM): 0.032
relative viability ([1]; first compound 0.8 µM): 0.13
relative viability ([1]; first compound 2.53 µM): 0.022
relative viability ([1]; first compound 8 µM): 0.0231
relative viability ([2]; first compound 0.08 µM): 1.16
relative viability ([2]; first compound 0.253 µM): 0.98
relative viability ([2]; first compound 0.8 µM): 0.85
relative viability ([2]; first compound 2.53 µM): 1.09
relative viability ([2]; first compound 8 µM): 0.836
relative viability ([3]; first compound 0.08 µM): 0.0636
relative viability ([3]; first compound 0.253 µM): 0.0585
relative viability ([3]; first compound 0.8 µM): 0.066
relative viability ([3]; first compound 2.53 µM): 0.0648
relative viability ([3]; first compound 8 µM): 0.0698
relative viability (AT-7519 + OSI-027; first compound 0.01 µM): 0.906
relative viability (AT-7519 + OSI-027; first compound 0.03162 µM): 0.686
relative viability (AT-7519 + OSI-027; first compound 0.3162 µM): 0.288
relative viability (AT-7519 + OSI-027; first compound 1 µM): 0.0567

NCI-H520
relative viability ([1]; first compound 0.08 µM): 0.237
relative viability ([1]; first compound 0.253 µM): 0.218
relative viability ([1]; first compound 0.8 µM): 0.237
relative viability ([1]; first compound 2.53 µM): 0.225
relative viability ([1]; first compound 8 µM): 0.231
relative viability ([2]; first compound 0.08 µM): 0.973
relative viability ([2]; first compound 0.253 µM): 0.808
relative viability ([2]; first compound 0.8 µM): 0.802
relative viability ([2]; first compound 2.53 µM): 0.692
relative viability ([2]; first compound 8 µM): 0.869
relative viability ([3]; first compound 0.08 µM): 0.696
relative viability ([3]; first compound 0.253 µM): 0.706
relative viability ([3]; first compound 0.8 µM): 0.637
relative viability ([3]; first compound 2.53 µM): 0.715
relative viability ([3]; first compound 8 µM): 0.692
relative viability (AT-7519 + OSI-027; first compound 0.01 µM): 0.254
relative viability (AT-7519 + OSI-027; first compound 0.03162 µM): 0.285
relative viability (AT-7519 + OSI-027; first compound 0.3162 µM): 0.26
relative viability (AT-7519 + OSI-027; first compound 1 µM): 0.241

NCI-H596
relative viability ([1]; first compound 0.08 µM): 1.16
relative viability ([1]; first compound 0.253 µM): 1.09
relative viability ([1]; first compound 0.8 µM): 1.05
relative viability ([1]; first compound 2.53 µM): 1.11
relative viability ([1]; first compound 8 µM): 0.832
relative viability ([2]; first compound 0.08 µM): 1.13
relative viability ([2]; first compound 0.253 µM): 1.02
relative viability ([2]; first compound 0.8 µM): 0.921
relative viability ([2]; first compound 2.53 µM): 0.899
relative viability ([2]; first compound 8 µM): 0.898
relative viability ([3]; first compound 0.08 µM): 0.557
relative viability ([3]; first compound 0.253 µM): 0.452
relative viability ([3]; first compound 0.8 µM): 0.52
relative viability ([3]; first compound 2.53 µM): 0.493
relative viability ([3]; first compound 8 µM): 0.486
relative viability (AT-7519 + OSI-027; first compound 0.01 µM): 0.723
relative viability (AT-7519 + OSI-027; first compound 0.03162 µM): 0.628
relative viability (AT-7519 + OSI-027; first compound 0.3162 µM): 0.644
relative viability (AT-7519 + OSI-027; first compound 1 µM): 0.754

NCI-H647
relative viability ([1]; first compound 0.08 µM): 0.138
relative viability ([1]; first compound 0.253 µM): 0.241
relative viability ([1]; first compound 0.8 µM): 0.215
relative viability ([1]; first compound 2.53 µM): 0.276
relative viability ([1]; first compound 8 µM): 0.135
relative viability ([2]; first compound 0.08 µM): 1.36
relative viability ([2]; first compound 0.253 µM): 0.865
relative viability ([2]; first compound 0.8 µM): 1.05
relative viability ([2]; first compound 2.53 µM): 1.08
relative viability ([2]; first compound 8 µM): 0.962
relative viability ([3]; first compound 0.08 µM): 0.174
relative viability ([3]; first compound 0.253 µM): 0.189
relative viability ([3]; first compound 0.8 µM): 0.182
relative viability ([3]; first compound 2.53 µM): 0.183
relative viability ([3]; first compound 8 µM): 0.168
relative viability (AT-7519 + OSI-027; first compound 0.01 µM): 0.538
relative viability (AT-7519 + OSI-027; first compound 0.03162 µM): 0.675
relative viability (AT-7519 + OSI-027; first compound 0.3162 µM): 0.676
relative viability (AT-7519 + OSI-027; first compound 1 µM): 0.471

NCI-H650
relative viability ([1]; first compound 0.08 µM): 0.876
relative viability ([1]; first compound 0.253 µM): 0.874
relative viability ([1]; first compound 0.8 µM): 0.691
relative viability ([1]; first compound 2.53 µM): 0.889
relative viability ([1]; first compound 8 µM): 0.76
relative viability ([2]; first compound 0.08 µM): 0.738
relative viability ([2]; first compound 0.253 µM): 0.79
relative viability ([2]; first compound 0.8 µM): 0.764
relative viability ([2]; first compound 2.53 µM): 0.712
relative viability ([2]; first compound 8 µM): 0.818
relative viability ([3]; first compound 0.08 µM): 1.04
relative viability ([3]; first compound 0.253 µM): 0.922
relative viability ([3]; first compound 0.8 µM): 0.956
relative viability ([3]; first compound 2.53 µM): 0.936
relative viability ([3]; first compound 8 µM): 0.791
relative viability (AT-7519 + OSI-027; first compound 0.01 µM): 0.529
relative viability (AT-7519 + OSI-027; first compound 0.03162 µM): 0.496
relative viability (AT-7519 + OSI-027; first compound 0.3162 µM): 0.498
relative viability (AT-7519 + OSI-027; first compound 1 µM): 0.711

Source: the supplement of paper PMC10307832
